Among the test systems are 786-0 renal; CCRF-CEM leukemia; DU-145 prostate; HL-60(TB) leukemia; HS 578T breast; HT29 colon; LOX IMVI melanoma; MDA-MB-231 breast; NCI-H460 lung; OVCAR-8 ovarian; T-47D breast; TK-10 renal; A549 NSCLC; HCC-2998 colon; K-562 leukemia; MOLT-4 leukemia; NCI-H226 lung; SF-539 CNS; SR leukemia; SK-MEL-5 melanoma.
What all share (experiment): NCI anticancer screen, dose series, 48 h

Here are results for seven compounds from PubChem BioAssay (NCI).

Structures are written as SMILES.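 Five concentrations, 48 hours, 96-well plates. TGI marks complete inhibition of growth.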 A value given as a limit tells only on which side of the number the result lay.

In the case of `OC(c1ccc(F)cc1)C(F)(F)c1nc(-c2ccccc2)no1` (configuration not stated), the TGI with 786-0 renal came to 44.2 µM; in the assay on CCRF-CEM leukemia it was 52.2 µM; in the assay on DU-145 prostate, 50.4 µM; in the assay with HL-60(TB) leukemia it was 48.7 µM; in the assay with HS 578T breast, 63.9 µM; with HT29 colon, 33.4 µM. Further, the TGI with LOX IMVI melanoma was over 100 µM; with MDA-MB-231 breast, 42.8 µM; in the assay on NCI-H460 lung, 74.7 µM; with OVCAR-8 ovarian, over 100 µM; in the assay with T-47D breast, 68.3 µM; in the assay on TK-10 renal, over 100 µM.

Take `Nc1ncnc2c1ncn2[C@@H]1C[C@H]1CO`: the TGI with 786-0 renal, in the assay with A549 NSCLC, in the assay on CCRF-CEM leukemia, in the assay with HCC-2998 colon, in the assay with HL-60(TB) leukemia and in the assay on HS 578T breast was over 100 µM throughout. The TGI in the assay with HT29 colon, with K-562 leukemia, with LOX IMVI melanoma, in the assay on MDA-MB-231 breast, in the assay on MOLT-4 leukemia and with NCI-H226 lung was over 100 µM throughout. The TGI in the assay with NCI-H460 lung, in the assay on OVCAR-8 ovarian, in the assay with SF-539 CNS, with SR leukemia and in the assay on T-47D breast was over 100 µM each time.

`CC(=O)Nc1ccc2c3c(cc(O)c2c1)N(C(=O)CCCC(=O)Nc1ccc2c4c(cc(O)c2c1)N(C(=O)OC(C)(C)C)CC4CCl)CC3CCl` (configuration not stated): the TGI with 786-0 renal was over 13.1 µM; in the assay with A549 NSCLC, over 50 µM; in the assay on CCRF-CEM leukemia it was 0.599 µM; in the assay with DU-145 prostate, over 50 µM; in the assay on HCC-2998 colon, 1.91 µM; with HL-60(TB) leukemia it was 1.71 µM. Besides, the TGI in the assay with HS 578T breast was over 12.1 µM; in the assay with HT29 colon, over 13.1 µM; in the assay with K-562 leukemia, over 31.4 µM; with LOX IMVI melanoma, over 12.4 µM; in the assay on MDA-MB-231 breast, 3.74 µM; in the assay with MOLT-4 leukemia, 0.912 µM. In addition, the TGI was 21.5 µM in the assay with NCI-H460 lung; over 50 µM in the assay with OVCAR-8 ovarian; over 50 µM in the assay with SF-539 CNS; over 11.6 µM with SK-MEL-5 melanoma; 12.7 µM in the assay with T-47D breast; 35 µM with TK-10 renal.

Consider `COC(=O)C(/C(=N/N)C(=O)Nc1ccc(C)c(C)c1)c1nc2ccc(Cl)cc2[nH]c1=O` (configuration not stated), for which the TGI with 786-0 renal, in the assay on A549 NSCLC, in the assay with CCRF-CEM leukemia, with HCC-2998 colon, in the assay on HL-60(TB) leukemia and in the assay on HS 578T breast was over 100 µM throughout. Besides, the TGI in the assay on HT29 colon, in the assay on K-562 leukemia, in the assay with LOX IMVI melanoma, in the assay with MDA-MB-231 breast, in the assay on MOLT-4 leukemia and in the assay on NCI-H226 lung was over 100 µM in each case. Moreover, the TGI with NCI-H460 lung, in the assay with OVCAR-8 ovarian, in the assay on SF-539 CNS, in the assay with SK-MEL-5 melanoma, in the assay on SR leukemia and in the assay with T-47D breast was over 100 µM throughout. Moreover, the TGI in the assay on TK-10 renal was over 100 µM.

With `CN(C)C(=S)N/N=C\C(=N/NC(=S)N(C)C)c1ccccc1`, the TGI in the assay with 786-0 renal was over 100 µM; in the assay with A549 NSCLC, over 100 µM; with DU-145 prostate, over 22.7 µM; in the assay on HCC-2998 colon, over 100 µM; in the assay with HS 578T breast it was over 29.9 µM; in the assay with HT29 colon, over 100 µM. Besides, the TGI with K-562 leukemia is over 100 µM; with LOX IMVI melanoma it was over 100 µM; with MDA-MB-231 breast, over 100 µM; with MOLT-4 leukemia it was over 100 µM; in the assay with NCI-H226 lung, over 30.6 µM; with NCI-H460 lung, over 100 µM. Further, the TGI is over 100 µM in the assay on OVCAR-8 ovarian; over 100 µM in the assay on SF-539 CNS; over 100 µM with SK-MEL-5 melanoma; 4.77 µM with T-47D breast; over 100 µM in the assay with TK-10 renal.

Turning to `Cc1[nH]c2ncn3ncnc3c2c1Cc1ccccc1`, the TGI in the assay with 786-0 renal, in the assay on A549 NSCLC, in the assay with CCRF-CEM leukemia, in the assay with DU-145 prostate, in the assay with HCC-2998 colon and in the assay with HL-60(TB) leukemia was over 100 µM each time. The TGI in the assay with HS 578T breast, in the assay with HT29 colon, in the assay with MDA-MB-231 breast, with MOLT-4 leukemia, in the assay with NCI-H226 lung and in the assay with NCI-H460 lung was over 100 µM each time. Also, the TGI in the assay on OVCAR-8 ovarian, with SF-539 CNS, in the assay on SK-MEL-5 melanoma, in the assay on T-47D breast and in the assay on TK-10 renal was over 100 µM in each case.

With `Cc1nc2c(=O)[nH]c3ccccc3c2o1`, the TGI in the assay on 786-0 renal, in the assay on A549 NSCLC, in the assay on CCRF-CEM leukemia, with DU-145 prostate, in the assay with HCC-2998 colon and in the assay with HL-60(TB) leukemia was over 100 µM each time. In addition, the TGI in the assay with HS 578T breast, in the assay with HT29 colon, in the assay with LOX IMVI melanoma, in the assay with MDA-MB-231 breast, in the assay with NCI-H226 lung and in the assay with NCI-H460 lung was over 100 µM each time. In addition, the TGI in the assay on OVCAR-8 ovarian, with SF-539 CNS, with SK-MEL-5 melanoma, in the assay on T-47D breast and in the assay with TK-10 renal was over 100 µM each time.
